Measured values: paper PMC6193035, “Novel small molecules affecting cell membrane as potential therapeutics for avian pathogenic Escherichia coli” (Scientific Reports, 2018)
Values after ≈ are worked out from the molar mass of the structure shown. Where two headings read alike, the source gives them in different places. Marks after values point to notes of the source that are not given here.

Key:
Format in all cases: cell-based, Escherichia coli
[1] = test system: APEC O1-63; assay: Antimicrobial susceptibility, CAMHB micro-dilution (CLSI); conditions: APEC O1-63, CAMHB, (R) = resistant
Description: (§1) Initially, antimicrobial susceptibility profile was established for all the tested APEC serotypes using cation-adjusted Muller-Hinton broth (CAMHB) micro-dilution method according to clinical and laboratory standards institute (CLSI) guidelines.

[2] = test system: APEC O109; assay: as above; conditions: (R) = resistant
Description: as §1

[3] = test system: APEC O115; assay: as above; conditions: (R) = resistant
Description: as §1

[4] = test system: APEC O15; assay: as above; conditions: (R) = resistant
Description: as §1

[5] = test system: APEC O18; assay: as above; conditions: (R) = resistant
Description: as §1

[6] = test system: APEC O1; assay: as above; conditions: (R) = resistant
Description: as §1

[7] = test system: APEC O2-211; assay: as above; conditions: APEC O2-211, CAMHB, (R) = resistant
Description: as §1

[8] = test system: APEC O2; assay: as above; conditions: (R) = resistant
Description: as §1

[9] = test system: APEC O35; assay: as above; conditions: (R) = resistant
Description: as §1

[10] = test system: APEC O78-53; assay: as above; conditions: APEC O78-53, CAMHB, (R) = resistant
Description: as §1

[11] = test system: APEC O78; assay: as above; conditions: (R) = resistant
Description: as §1

[12] = test system: APEC O8; assay: as above; conditions: (R) = resistant
Description: as §1

[13] = test system: E. coli ATCC 25922; assay: Antimicrobial susceptibility, quality control strain (CLSI); conditions: E. coli ATCC 25922 quality control strain, CAMHB
Description: as §1

[14] = test system: APEC O78; assay: Primary screening, growth inhibition of APEC O78; conditions: separate experiment, DMSO 1% to 32%, M63 media, 12 h
Method: To identify the APEC growth inhibitors, SM library was screened against APEC O78 which is one of the most frequently isolated APEC serotypes from avian colibacillosis cases. One microlitre SMs (final concentration of 100 µM) were added using a slotted pin tool (V and P Scientific, San Diego, CA, USA) to the wells of the 96-well plate containing 100 µL of overnight grown 0.05 OD600 (7 × 10^7 CFU/mL) adjusted APEC culture. Controls (four replicates/plate) containing 1 µL of 100% DMSO (final concentration of 1%), 1 µL chloramphenicol (CHL, #C0378 Sigma-Aldrich) (20 µg/mL), 1 µL kanamycin (KAN, #60615 Sigma-Aldrich) (50 µg/mL), and 100 µL of M63 media were included. To determine the effect of DMSO on APEC growth, antimicrobial activity of DMSO was determined at different concentrations (1% to 32%) in a separate experiment. Plate was then incubated at 37 °C for 12 h in Sunrise - Absorbance microplate reader (Tecan Group Ltd. San Jose, CA) with kinetic OD600 measurement every 30 mins. The quality of screening was assessed by calculating the Z′-score as described previously. The growth inhibition of APEC was calculated by using the formula as previously described[13],[14]. The SMs inhibiting at least 80% of the APEC growth were selected as primary hits. […]

[15] = test system: APEC O78; assay: Crystal violet (CV) uptake assay; conditions: 2X MBC, 30 mins; P < 0.05, Student's t-test
Method: (§2) Membrane permeability assays (crystal violet (CV) uptake and loss of 260/280 nm absorbing materials) were conducted as described previously. […] CV uptake was measured using the formula: (OD DMSO − OD SM/OD DMSO × 100). Two independent experiments in duplicates were conducted.

[16] = test system: APEC O78; assay: Loss of 260/280 nm absorbing materials assay; conditions: 2X MBC, 1 h
Method: as §2

[17] = Escherichia coli, read-out: MIC
[18] = Escherichia coli, ATCC25922, read-out: MIC

Row | Compound | MIC [1, 17] [µg/mL] | MIC [2, 17] [µg/mL] | MIC [3, 17] [µg/mL] | MIC [4, 17] [µg/mL] | MIC [5, 17] [µg/mL] | MIC [6, 17] [µg/mL] | MIC [7, 17] [µg/mL] | MIC [8, 17] [µg/mL] | MIC [9, 17] [µg/mL] | MIC [10, 17] [µg/mL] | MIC [11, 17] [µg/mL] | MIC [12, 17] [µg/mL] | MIC [13, 18] [µg/mL] | also measured
1 | CN(C)[C@@H]1C(O)=C(C(N)=O)C(=O)[C@@]2(O)C(O)=C3C(=O)c4c(O)cccc4[C@@](C)(O)[C@H]3C[C@@H]12 [Tetracycline, tetracycline] | 16 (≈ 36 µM) | 1 (≈ 2.25 µM) | > 64 | > 64 | 2 (≈ 4.5 µM) | > 64 | > 64 | > 64 | 1 (≈ 2.25 µM) | > 64 | 32 (≈ 72 µM) | > 64 | 0.5 (≈ 1.13 µM) | 
2 | colistin |  |  |  |  |  |  |  |  |  |  |  |  |  | MIC [1]: 4 µg/mL; MIC [2]: 0.5 µg/mL; MIC [3]: 1 µg/mL; MIC [4]: 1 µg/mL; MIC [5]: 1 µg/mL; MIC [6]: 0.5 µg/mL; MIC [7]: 4 µg/mL; MIC [8]: 0.5 µg/mL; MIC [9]: 1 µg/mL; MIC [10]: 0.5 µg/mL; MIC [11]: 0.25 µg/mL; MIC [12]: 1 µg/mL; MIC [13]: 1 µg/mL
3 | C[S+](C)[O-] [DMSO, dimethyl sulfoxide] |  |  |  |  |  |  |  |  |  |  |  |  |  | DMSO concentration inhibitory to APEC [14]: ≥ 8%
4 | CC1(C)S[C@@H]2[C@H](NC(=O)[C@H](N)c3ccccc3)C(=O)N2[C@H]1C(=O)O [Ampicillin, ampicillin] | 4 (≈ 11.4 µM) | > 64 | > 64 | 2 (≈ 5.72 µM) | 4 (≈ 11.4 µM) | > 64 | 4 (≈ 11.4 µM) | > 64 | 2 (≈ 5.72 µM) | 4 (≈ 11.4 µM) | > 64 | 4 (≈ 11.4 µM) | 8 (≈ 22.9 µM) | 
5 | O=C(O)CN(CCN(CC(=O)O)CC(=O)O)CC(=O)O [EDTA, ethylenediaminetetraacteic acid, reference compound] |  |  |  |  |  |  |  |  |  |  |  |  |  | uptake of crystal violet compared with DMSO [15]: increased the uptake of crystal violet; 260 nm absorbing materials in supernatant compared with DMSO [16]: significantly (P < 0.05, Student’s t-test) increased; Absorbance 280 nm of treated supernatant ([16]; DMSO 2.58, superscript a P < 0.05 vs DMSO): 2.60; Absorbance 260 nm of treated supernatant ([16]; DMSO 3.77, superscript a P < 0.05 vs DMSO): 4.00^a
